Key:
[1] = biological target: T1, human orexin-2 receptor (Homo sapiens, UniProt O43614); assay: Intracellular calcium measurement (FLIPR), orexin-2 receptor antagonism; format: cell-based; details: CHO cells expressing human orexin-2 receptor, 3 nM orexin-A agonist; for inhibition at 1 µM: 1 uM compound, read-out: % Inhibition of OX2R @ 1 uM compound
T1 construct: expressed in transfected cells; host or cells: CHO cells (G418 selection)
T1 sequence (O43614 1-444): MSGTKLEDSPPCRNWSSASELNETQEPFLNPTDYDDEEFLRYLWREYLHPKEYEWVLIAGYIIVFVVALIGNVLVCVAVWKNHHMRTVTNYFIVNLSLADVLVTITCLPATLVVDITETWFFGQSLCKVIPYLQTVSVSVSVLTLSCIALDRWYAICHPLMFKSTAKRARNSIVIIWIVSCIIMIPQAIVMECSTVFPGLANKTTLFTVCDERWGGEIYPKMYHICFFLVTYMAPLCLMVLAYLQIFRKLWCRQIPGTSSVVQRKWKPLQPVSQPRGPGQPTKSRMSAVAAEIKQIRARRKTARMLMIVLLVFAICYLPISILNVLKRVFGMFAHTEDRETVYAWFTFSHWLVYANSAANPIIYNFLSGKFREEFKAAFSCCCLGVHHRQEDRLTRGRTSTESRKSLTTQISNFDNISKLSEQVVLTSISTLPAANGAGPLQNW
Experimental: (§1) Antagonistic activities on both orexin receptors have been measured for each example compound using the following procedure:
(§2) In Vitro Assay: Intracellular Calcium Measurements:
(§3) Chinese hamster ovary (CHO) cells expressing the human orexin-1 receptor and the human orexin-2 receptor, respectively, are grown in culture medium (Ham F-12 with L-Glutamine) containing 300 μg/mL G418, 100 U/mL penicillin, 100 μg/mL streptomycin and 10% heat inactivated fetal calf serum (FCS). The cells are seeded at 20′000 cells/well into 384-well black clear bottom sterile plates (Greiner). The seeded plates are incubated overnight at 37° C. in 5% CO2. Human orexin-A as an agonist is prepared as 1 mM stock solution in MeOH:water (1:1), diluted in HBSS containing 0.1% bovine serum albumin (BSA), NaHCO 3: 0.375 g/L and 20 mM HEPES for use in the assay at a final concentration of 3 nM.
(§4) Antagonists are prepared as 10 mM stock solution in DMSO, then diluted in 384-well plates using DMSO followed by a transfer of the dilutions into in HBSS containing 0.1% bovine serum albumin (BSA), NaHCO 3: 0.375 g/L and 20 mM HEPES. On the day of the assay, 50 μL of staining buffer (HBSS containing 1% FCS, 20 mM HEPES, NaHCO 3: 0.375 g/L, 5 mM probenecid (Sigma) and 3 μM of the fluorescent calcium indicator fluo-4 AM (1 mM stock solution in DMSO, containing 10% pluronic) is added to each well. The 384-well cell-plates are incubated for 50 min at 37° C. in 5% CO2 followed by equilibration at RT for 30 min before measurement.
(§5) Within the Fluorescent Imaging Plate Reader (FLIPR Tetra, Molecular Devices), antagonists are added to the plate in a volume of 10 μL/well, incubated for 120 min and finally 10 μL/well of agonist is added. Fluorescence is measured for each well at 1 second intervals, and the height of each fluorescence peak is compared to the height of the fluorescence peak induced by 3 nM orexin-A with vehicle in place of antagonist. The IC50 value (the concentration of compound needed to inhibit 50% of the agonistic response) is determined and may be normalized using the obtained IC50 value of an on-plate reference compound. Optimized conditions were achieved by adjustment of pipetting speed and cell splitting regime. The calculated IC50 values may fluctuate depending on the daily cellular assay performance. Fluctuations of this kind are known to those skilled in the art. In the case where IC50 values have been determined several times for the same compound, the geometric mean has been given.

[2] = biological target: T2, human orexin-1 receptor (Homo sapiens, UniProt O43613); assay: Intracellular calcium measurement (FLIPR), orexin-1 receptor antagonism; format: cell-based; details: CHO cells expressing human orexin-1 receptor, 3 nM orexin-A agonist; for inhibition at 1 µM: 1 uM compound, read-out: % Inhibition of OX1R @ 1 uM compound; for IC50: read-out: IC50 OX1R; for Kb: read-out: Kb OX1R
T2 construct: expressed in transfected cells; host or cells: CHO cells (G418 selection)
T2 sequence (O43613 1-425): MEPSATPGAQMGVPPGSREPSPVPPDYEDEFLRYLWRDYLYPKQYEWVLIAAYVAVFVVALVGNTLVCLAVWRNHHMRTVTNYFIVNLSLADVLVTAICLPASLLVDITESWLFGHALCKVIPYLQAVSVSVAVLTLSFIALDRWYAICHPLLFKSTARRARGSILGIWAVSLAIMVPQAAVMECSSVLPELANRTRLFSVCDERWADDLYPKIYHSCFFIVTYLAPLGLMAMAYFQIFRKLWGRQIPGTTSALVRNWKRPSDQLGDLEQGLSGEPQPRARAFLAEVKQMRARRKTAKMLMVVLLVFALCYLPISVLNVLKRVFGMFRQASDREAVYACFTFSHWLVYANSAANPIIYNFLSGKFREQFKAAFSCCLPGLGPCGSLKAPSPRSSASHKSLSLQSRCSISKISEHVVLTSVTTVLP
Experimental: as §1, §2, §3, §4, §5

Compound	inhibition at 1 µM [1] [%]	inhibition at 1 µM [2] [%]	IC50 [2] [nM]	Kb [2] [nM]	IC50 ([1]; read-out: IC50 OX2R) [nM]	Kb ([1]; read-out: Kb OX2R) [nM]
O=C(c1c(-c2ccccc2)nc2occn12)N1CCC[C@H]1CNc1ccc(C(F)(F)F)cn1 [Example 3]	14.4	45.8	–	–	–	–
O=C(c1c(-c2ccc(F)cc2)nc2scnn12)N1CCC[C@H]1Cn1ccc(-c2ccccc2)n1 [Example 16]	34.4	90.3	7	1.5	–	–
O=C(c1c(-c2ccccc2)nc2occn12)N1CCC[C@H]1Cn1ccc(-c2ccccc2)n1 [Example 1]	26.6	70.4	–	–	–	–
CCc1cnc(NC[C@@H]2CCCN2C(=O)c2c(-c3ccccc3F)nc3sccn23)nc1 [Example 15]	15.2	25.1	–	–	–	–
C[C@@H]1CCCN(C(=O)c2c(-c3ccccc3)nc3occn23)[C@@H]1CNc1ccc(C(F)(F)F)cn1 [Example 8]	1.8	81.6	11	2	–	–
CCc1cnc(NC[C@@H]2CCCN2C(=O)c2c(-c3ccccc3)nc3sccn23)nc1 [Example 6]	16.2	-5.39	–	–	–	–
CCc1cnc(NC[C@@H]2CCCN2C(=O)c2c(-c3ccccc3)nc3occn23)nc1 [Example 5]	3.3	0.5	–	–	–	–
O=C(c1c(-c2ccccc2)nc2occn12)N1CCC[C@H]1COc1ccc(C(F)(F)F)cn1 [Example 18]	14.9	37.1	–	–	–	–
C[C@@H]1CCCN(C(=O)c2c(-c3ccccc3)nc3sccn23)[C@@H]1CNc1ccc(C(F)(F)F)cn1 [Example 9]	10.7	81.4	18	4	–	–
Cc1nn2c(C(=O)N3CCC[C@@H](C)[C@H]3CNc3ccc(C(F)(F)F)cn3)c(-c3ccc(F)cc3)nc2s1 [Example 12]	11.8	79.8	13	3	–	–
CCc1cnc(NC[C@@H]2CCCN2C(=O)c2c(-c3ccc(F)cc3)nc3sc(C)nn23)nc1 [Example 11]	12	16.1	–	–	–	–

Now from value to molecule:

inhibition at 1 µM [1] [%]	inhibition at 1 µM [2] [%]	IC50 [2] [nM]	Kb [2] [nM]	IC50 ([1]; read-out: IC50 OX2R) [nM]	Kb ([1]; read-out: Kb OX2R) [nM]	Compound
9.37	63.5	270	57	–	–	CCc1cnc(NC[C@@H]2[C@H](C)CCCN2C(=O)c2c(-c3ccccc3)nc3sccn23)nc1 [Example 10]
8.06	4.5	–	–	–	–	CCc1cnc(OC[C@@H]2CCCN2C(=O)c2c(-c3ccccc3)nc3occn23)nc1 [Example 17]
39.9	83	–	–	–	–	O=C(c1c(-c2ccccc2)nc2sccn12)N1CCC[C@H]1Cn1ccc(-c2ccccc2)n1 [Example 2]
57	87.4	12	3	1750	241	O=C(c1c(-c2ccccc2F)nc2sccn12)N1CCC[C@H]1Cn1ccc(-c2ccccc2)n1 [Example 14]
6.75	48.1	–	–	–	–	CCc1cnc(NC[C@@H]2[C@H](C)CCCN2C(=O)c2c(-c3ccccc3)nc3occn23)nc1 [Example 7]
25.4	61.1	–	–	–	–	O=C(c1c(-c2ccccc2)nc2sccn12)N1CCC[C@H]1CNc1ccc(C(F)(F)F)cn1 [Example 4]
29	62.8	–	–	–	–	O=C(c1c(-c2ccccc2F)nc2sccn12)N1CCC[C@H]1CNc1ccc(C(F)(F)F)cn1 [Example 13]

From US12187738B2, “Imidazolo derivatives, compositions and methods as orexin antagonists” (HAGER BIOSCIENCES, LLC, priority 2019, dated 2025)
